The values that follow come from patent US11254722B2, “Recombinant proteins and uses thereof” (ACADEMIA SINICA, priority 2017, dated 2022).

For test [1], the target named is T1, PIGF (Homo sapiens, UniProt P49763).
T1 construct: purchased R&D Sciences or SinoBiologicals
T1 sequence (P49763 19-221): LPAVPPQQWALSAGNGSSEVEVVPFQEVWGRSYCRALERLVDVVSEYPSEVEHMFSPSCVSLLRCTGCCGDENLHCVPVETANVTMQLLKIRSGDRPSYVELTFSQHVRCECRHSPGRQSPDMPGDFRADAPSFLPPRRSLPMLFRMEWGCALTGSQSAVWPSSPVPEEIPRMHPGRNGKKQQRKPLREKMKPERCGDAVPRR
Briefly: In vitro proliferation stimulated by PIGF (Table 8). The format is cell-based. Here is the method:
(§1) For the proliferation assay, cells except for HUVEC were seeded at a density of 1,000 to 6,000 in 96 wells in an assay buffer of DMEM/F12 plus 0.2% BSA and 10 ug/ml transferrin. Chemical inhibitors were added after 16-20 hours after plating; IGF-1 or other growth factors or test chimeras in assay buffer were added at the time of plating or 16-20 hours after plating. 5,000 HUVEC ells were plated in poly-L-lysine coated 96 wells in M199 with 1%/FBS and HEPES. After 3 to 4 days of culture, growth was determined by incubating cells with Alamar blue for 4 to 6 hours and then the fluorescence (RFU) at 544/590 nm was read. For long term proliferation assays, cells were plated in the growth media with 5% or 10% FBS at densities of 500 to 10,000 cells per cm^2 growth area and grown for 7 to 21 days. Inhibitors and effectors were added 1-4 days after plating. Cells were exposed to cisplatin or gemcitabine for two days. Medium was renewed twice weekly. At completion, cells were fixed and then stained with Giemsa.
The BP3-VEGF-trap-fc (including the IGFBP3 domains, the VEGFR1 domain 2 and VEGFR2 domain 3 (VEGF-trap (22)), and human immunoglobulin Fc region) broadened the binding to include VEGF-A, VEGF-B, and placental growth factor (PIGF). This BP3-VEGF-trap chimera could inhibit the proliferation stimulated by IGF-1, IGF-2, neuregulin, PDGF-BB, HGF, bFGF, VEGF-A, and PIGF (see, Table 8).

Test [2] has as its system cancer cells. Briefly: In vitro proliferation of cancer cells stimulated by growth factors (Table 8). The format is cell-based. Here is the method: as §1
The BP3-fc construct inhibited the proliferation of cancer cells that had been stimulated by IGF-1, IGF-2, neuregulin, HGF, and bFGF.

For test [3], the system named is hep3B cells. Briefly: hep3B proliferation assay. In kind it is cell-based, human. The following applies: hep3B. In outline:
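Cells seeded at 1,000 to 6,000 per well in DMEM/F12 with 0.2% BSA and 10 ug/ml transferrin. Inhibitors added 16-20 h after plating; IGF-1 or other growth factors at plating or 16-20 h later. After 3 to 4 days, growth read by Alamar blue fluorescence at 544/590 nm after 4 to 6 h.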

The test system of test [4] is HUVEC cells. Briefly: HUVEC proliferation assay. The format is cell-based. The following applies: HGF-induced, HUVEC. In outline: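 HUVEC, 5,000 per well, plated on poly-L-lysine in M199 with 1% FBS and HEPES. After 3 to 4 days of culture, growth read by Alamar blue incubation for 4 to 6 hours, fluorescence (RFU) at 544/590 nm.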

On to “56662: IGFBP3-Fc, SEQ ID NO: 7; unmodified IGFBP3 fused with the IgG Fc portion [compound 56662]”, for which, in test [1], the “inhibition of proliferation stimulated by PIGF” value is reported as “no”. The “inhibition of proliferation stimulated by bFGF” value in test [2] was “inh”. Also, the “In vitro inhibition of proliferation, HGF” value in test [3] (HGF-induced) is on record as “yes (hep3B, HUVEC)”; in test [4], “yes (hep3B, HUVEC)”. For the same substance, the EC50 in test [3] (FIG. 11C, read-out: ECK for FBS-induced proliferation) was 201 nM.
